According to ChEMBL document CHEMBL1201862, “PubChem BioAssay data set” (2004):
Active and inactive are the calls of the source.

Tests used:
[1] = target: T1, SUMO-activating enzyme (Homo sapiens, UniProt Q9UBT2); experiment: SUMOylation inhibitor hit validation, confirmation, SUMOylation inhibitor project, biochemical, AlphaScreen (AID 2018); assay type: functional
[2] = tested on: Vero; experiment: Vero cell cytotoxicity, cytotoxicity control for flavivirus capping enzyme inhibitors (AID 588742); assay type: functional; details: Chlorocebus sabaeus
[3] = target: T1, SUMO-activating enzyme; experiment: inhibitors of in vitro SUMOylation cascade, primary screen, biochemical, HTRF, uHTS (AID 2006); assay type: protein-complex assay
[4] = target: T2, Replicative DNA helicase DnaB (Mycobacterium tuberculosis, UniProt P9WMR3); experiment: DnaB intein splicing inhibitors, dose response, biochemical, cell-free fluorescence (AID 449749); assay type: functional
T2 sequence (P9WMR3 whole entry): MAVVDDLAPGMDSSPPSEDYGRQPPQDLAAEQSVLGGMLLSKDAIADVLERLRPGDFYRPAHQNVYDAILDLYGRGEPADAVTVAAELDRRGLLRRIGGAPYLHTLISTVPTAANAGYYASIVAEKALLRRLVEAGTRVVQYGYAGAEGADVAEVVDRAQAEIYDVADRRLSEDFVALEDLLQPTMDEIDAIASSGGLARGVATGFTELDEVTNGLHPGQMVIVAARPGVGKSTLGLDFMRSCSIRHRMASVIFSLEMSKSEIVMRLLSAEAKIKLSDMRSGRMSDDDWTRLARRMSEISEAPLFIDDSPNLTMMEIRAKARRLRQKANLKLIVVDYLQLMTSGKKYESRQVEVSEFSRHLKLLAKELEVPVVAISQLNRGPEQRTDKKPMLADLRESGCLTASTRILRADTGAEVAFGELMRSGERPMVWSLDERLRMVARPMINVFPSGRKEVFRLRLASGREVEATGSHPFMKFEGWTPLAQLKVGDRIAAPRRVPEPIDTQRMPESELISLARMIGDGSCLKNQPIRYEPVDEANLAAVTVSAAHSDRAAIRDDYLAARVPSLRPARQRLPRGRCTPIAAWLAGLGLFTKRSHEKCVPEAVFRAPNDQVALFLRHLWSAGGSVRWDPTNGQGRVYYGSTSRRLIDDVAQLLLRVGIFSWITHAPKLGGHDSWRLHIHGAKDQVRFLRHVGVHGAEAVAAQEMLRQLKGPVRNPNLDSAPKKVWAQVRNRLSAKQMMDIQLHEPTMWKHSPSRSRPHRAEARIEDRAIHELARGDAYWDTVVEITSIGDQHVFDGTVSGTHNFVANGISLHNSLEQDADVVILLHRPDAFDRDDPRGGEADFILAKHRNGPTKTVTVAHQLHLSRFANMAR

[5] = inhibitors of intracellular T. cruzi replication, confirmation, NIH3T3 host cells, beta-gal luminescence (AID 2044); assay type: functional, cell-based;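 note: intracellular parasites grown in NIH/3T3 mouse fibroblasts as host cells; luminescent beta-galactosidase reporter signal from transgenic T. cruzi replicating inside host cells; inhibitors lower the luminescence signal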
[6] = cytotoxicity toward NIH3T3 fibroblasts, dose response, counter-screen, cell-based, ATP luminescence, mouse fibroblasts (AID 2010); assay type: functional;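 note: cells exposed to compound for about 90 hours before reading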
[7] = target: T3, Protein RecA (Mycobacterium tuberculosis, UniProt P9WHJ3); experiment: Fluorescence Cell-Free Homogeneous Dose Retest to Identify Inhibitors of RecA-Intein Splicing Activity. [Related pubchem assays (depositor defined):AID2097, AID2223, AID489010, AID492950]; assay type: functional
T3 sequence (P9WHJ3 whole entry): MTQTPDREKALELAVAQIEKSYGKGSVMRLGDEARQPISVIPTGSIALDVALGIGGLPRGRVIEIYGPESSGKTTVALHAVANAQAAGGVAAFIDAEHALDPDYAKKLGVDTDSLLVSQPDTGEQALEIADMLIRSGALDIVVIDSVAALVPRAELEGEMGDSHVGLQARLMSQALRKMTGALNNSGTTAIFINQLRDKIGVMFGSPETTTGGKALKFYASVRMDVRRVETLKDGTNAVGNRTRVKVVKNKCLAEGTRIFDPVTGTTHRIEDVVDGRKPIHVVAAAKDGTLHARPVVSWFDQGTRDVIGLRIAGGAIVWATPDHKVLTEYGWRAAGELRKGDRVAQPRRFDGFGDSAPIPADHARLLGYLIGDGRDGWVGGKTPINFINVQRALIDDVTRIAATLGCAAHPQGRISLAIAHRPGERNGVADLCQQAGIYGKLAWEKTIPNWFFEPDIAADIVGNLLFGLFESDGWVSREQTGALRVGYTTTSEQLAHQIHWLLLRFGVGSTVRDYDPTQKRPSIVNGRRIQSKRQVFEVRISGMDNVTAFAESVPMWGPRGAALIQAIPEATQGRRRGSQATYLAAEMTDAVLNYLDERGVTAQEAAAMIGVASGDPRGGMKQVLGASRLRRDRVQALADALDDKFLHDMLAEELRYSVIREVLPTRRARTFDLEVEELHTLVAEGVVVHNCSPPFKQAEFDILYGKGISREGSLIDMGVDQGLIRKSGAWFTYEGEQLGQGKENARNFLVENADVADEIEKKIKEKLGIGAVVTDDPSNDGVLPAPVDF

[8] = HepG2 cell cytotoxicity, dose response, cytotoxicity control for Shn3 inhibitor project, CellTiter-Glo, cherry-picked (AID 624134); assay type: functional, cell-based
[9] = target: T4, Insulin-degrading enzyme (Homo sapiens, UniProt P14735); experiment: activators of recombinant IDE enzyme, dose response, counter-screen for IDE activator project, biochemical, fluorescence polarization (AID 588681)
T4 sequence (P14735 whole entry): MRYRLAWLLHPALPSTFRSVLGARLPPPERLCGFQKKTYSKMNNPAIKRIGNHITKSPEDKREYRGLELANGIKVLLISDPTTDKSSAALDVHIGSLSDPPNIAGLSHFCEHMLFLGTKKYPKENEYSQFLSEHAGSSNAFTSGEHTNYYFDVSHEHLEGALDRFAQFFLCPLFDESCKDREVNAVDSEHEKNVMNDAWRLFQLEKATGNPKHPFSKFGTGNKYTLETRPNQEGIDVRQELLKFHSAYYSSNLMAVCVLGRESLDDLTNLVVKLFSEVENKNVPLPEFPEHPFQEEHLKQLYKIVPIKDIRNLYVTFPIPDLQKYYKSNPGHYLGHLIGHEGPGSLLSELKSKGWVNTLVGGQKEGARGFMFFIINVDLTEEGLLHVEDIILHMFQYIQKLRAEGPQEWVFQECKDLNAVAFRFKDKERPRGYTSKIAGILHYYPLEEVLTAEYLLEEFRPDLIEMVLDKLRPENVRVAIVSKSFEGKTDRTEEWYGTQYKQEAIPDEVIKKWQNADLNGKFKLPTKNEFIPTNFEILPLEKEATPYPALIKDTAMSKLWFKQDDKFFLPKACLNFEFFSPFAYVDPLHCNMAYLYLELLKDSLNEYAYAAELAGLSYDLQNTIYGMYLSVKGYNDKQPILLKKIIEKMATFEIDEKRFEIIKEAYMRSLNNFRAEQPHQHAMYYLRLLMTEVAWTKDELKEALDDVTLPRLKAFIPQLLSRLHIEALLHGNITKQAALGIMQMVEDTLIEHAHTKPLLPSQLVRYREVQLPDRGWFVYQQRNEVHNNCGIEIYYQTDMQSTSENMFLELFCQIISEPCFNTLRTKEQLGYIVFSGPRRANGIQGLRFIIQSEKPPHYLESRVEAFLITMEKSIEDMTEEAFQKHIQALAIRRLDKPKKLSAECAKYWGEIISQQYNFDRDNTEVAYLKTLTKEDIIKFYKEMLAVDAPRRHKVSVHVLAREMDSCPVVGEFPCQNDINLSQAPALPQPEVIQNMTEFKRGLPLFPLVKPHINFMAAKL

[10] = Vero E6 cell cytotoxicity, dose response, cytotoxicity control for non-replicating M. tuberculosis project, secondary assay (AID 492998); assay type: functional, VeroE6; details: Vero C1008
[11] = cells; assay type: functional
[12] = HepG2 cell cytotoxicity, dose response, cytotoxicity control for non-replicating M. tuberculosis project (AID 489018); assay type: functional; details: Mycobacterium tuberculosis
[13] = tested on: HEK293; experiment: HEK cell cytotoxicity by LDH release, dose response, cytotoxicity control for IDE activator project, fluorescence, HEK cells (AID 588440); assay type: functional, cell-based; details: Homo sapiens;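 note: cytotoxicity by LDH release measuring loss of membrane integrity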
[14] = target: T5, Ubiquitin-conjugating enzyme E2 N (Homo sapiens, UniProt P61088); assay type: functional;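 note: Dose-response confirmation in a TR-FRET assay detecting UBC13-driven polyubiquitin chain formation, inhibition measured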
T5 sequence (P61088 whole entry): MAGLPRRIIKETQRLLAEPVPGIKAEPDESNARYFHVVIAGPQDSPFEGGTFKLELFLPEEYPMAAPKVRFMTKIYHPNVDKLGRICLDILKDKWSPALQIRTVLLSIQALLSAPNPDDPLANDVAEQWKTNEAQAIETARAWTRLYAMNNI

[15] = tested on: HEK293; experiment: optical interference in Abeta FP readout, dose response, artefact control for IDE activator project, biochemical, fluorescence polarization (AID 588442); assay type: functional, cell-based; details: Homo sapiens
[16] = control 3'UTR Renilla luciferase suppression, dose response, counter-screen for Shn3 inhibitor project, cell-based, Clone20-Shn3RL, cherry-picked (AID 624133); assay type: functional
[17] = target: T4, Insulin-degrading enzyme; experiment: activators of endogenous IDE in HEK cells, dose response, cell-based, fluorescence polarization (AID 588439); assay type: functional
[18] = Shn3 3'UTR reporter inhibitors, dose response, cell-based, Clone20 osteoblasts, firefly luciferase, cherry-picked (AID 624132); assay type: functional;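 note: firefly luciferase luminescence from reporter carrying the Shn3 3'UTR in osteoblasts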
[19] = microbe, parasite or virus in culture; assay type: functional; details: Mycobacterium tuberculosis
[20] = THP-1 cell cytotoxicity, dose response, cytotoxicity control for non-replicating M. tuberculosis project (AID 489025); assay type: functional

T1 sequence (Q9UBE0 whole entry): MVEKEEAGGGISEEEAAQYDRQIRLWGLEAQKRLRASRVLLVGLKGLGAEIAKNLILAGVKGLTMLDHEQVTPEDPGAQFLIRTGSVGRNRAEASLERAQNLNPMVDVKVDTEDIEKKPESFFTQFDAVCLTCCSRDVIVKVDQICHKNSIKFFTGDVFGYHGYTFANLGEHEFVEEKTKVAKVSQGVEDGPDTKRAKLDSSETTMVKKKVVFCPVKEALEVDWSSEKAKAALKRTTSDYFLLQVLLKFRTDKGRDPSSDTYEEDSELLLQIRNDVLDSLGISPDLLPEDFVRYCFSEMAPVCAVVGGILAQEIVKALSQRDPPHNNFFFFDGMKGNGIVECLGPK
T1 sequence (Q9UBT2 whole entry): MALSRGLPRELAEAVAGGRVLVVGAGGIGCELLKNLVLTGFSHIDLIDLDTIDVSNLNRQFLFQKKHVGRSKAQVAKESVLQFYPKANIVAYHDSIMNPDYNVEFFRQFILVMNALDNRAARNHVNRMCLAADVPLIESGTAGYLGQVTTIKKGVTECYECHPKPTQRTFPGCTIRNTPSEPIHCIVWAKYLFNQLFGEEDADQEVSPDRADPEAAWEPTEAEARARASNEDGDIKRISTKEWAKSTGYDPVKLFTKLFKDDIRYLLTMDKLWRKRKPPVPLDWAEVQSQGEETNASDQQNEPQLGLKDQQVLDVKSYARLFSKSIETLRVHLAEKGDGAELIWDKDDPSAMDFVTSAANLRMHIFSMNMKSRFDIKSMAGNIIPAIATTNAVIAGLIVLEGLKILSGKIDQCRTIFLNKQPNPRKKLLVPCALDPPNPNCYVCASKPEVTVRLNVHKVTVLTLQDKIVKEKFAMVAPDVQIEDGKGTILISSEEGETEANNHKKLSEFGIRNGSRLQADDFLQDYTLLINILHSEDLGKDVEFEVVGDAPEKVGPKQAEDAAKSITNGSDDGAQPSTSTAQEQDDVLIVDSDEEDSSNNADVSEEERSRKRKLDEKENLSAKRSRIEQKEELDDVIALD

CCCCCn1c(NC(=O)c2ccco2)c(S(=O)(=O)c2ccc(C)cc2)c2nc3ccccc3nc21
IC50 [1]: 2.74 µM (active)
CC50 [2]: > 40 µM (active)
IC50 [3]: 13.1 µM (active)
AC50 [4]: > 380 µM (inactive)
EC50 [5]: 3.27 µM (active)
EC50 [6]: > 60 µM (not active)
EC50 [7]: > 380 µM (inconclusive)

CCCCCCCNC(=O)C1(CC2CC(c3cccc(Br)c3)=NO2)CCNCC1 (stereo not given)
AC50 [8]: 14.1 µM (active)
EC50 [9]: > 54.7 µM (inactive)
CC50 [10]: 15.2 µM (active)
IC50 [11]: 17.2 µM (active)
CC50 [12]: 5.99 µM (active)
IC50 [13]: 7.51 µM (active)
IC50 [14]: > 20 µM (inactive)
EC50 [15]: > 55.9 µM (inactive)
AC50 [16]: 16.5 µM (active)
EC50 [17]: 54.5 µM (inactive)
AC50 [18]: 11.7 µM (active)
CC50 [19]: 6.71 µM (active)
CC50 [20]: 6.82 µM (active)
